Results: US20140081017A1, “Histone Deacetylase Inhibitors for Enhancing Activity of Antifungal Agents” (METHYLGENE INC., priority 2012, published 2014)
Converted amounts (≈) assume the structure as drawn. Like-named read-outs stand apart in the source and are kept apart here.

Assays:
Candida glabrata = test: Minimal Inhibitory Concentration (MIC) assay, broth microdilution per CLSI; format: cell-based; details: Nakaseomyces glabratus, read-out: Minimum Inhibitory Concentrations against Yeast Isolates, Candida glabrata;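 further: two read times 24 hr and 48 hr of incubation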
How it was run: (§1)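 Steps: overnight yeast growth on Sabouraud dextrose agar at 35° C; 0.5 McFarland saline suspension diluted 1:100 in RPMI (0.165 M MOPS, pH 7.0); inoculation into twofold compound dilutions; incubation 24-48 hr at 35° C; MIC scored as lowest concentration without visible growth.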

Candida parapsilosis = test: as above; format: cell-based; details: Lodderomyces parapsilosis, read-out: Minimum Inhibitory Concentrations against Yeast Isolates, Candida parapsilosis
How it was run: as §1

Candida albicans = test: as above; format: cell-based; details: Candida albicans, read-out: Minimum Inhibitory Concentrations against Yeast Isolates, Candida albicans
How it was run: as §1

C. glabrata = test: Checkerboard FIC assay in combination with fluconazole (MIC alone and in combination, FICI); format: cell-based, Candida glabrata; details: for FICI of combination resulting in fluconazole MIC of: 2 ug/mL / FICI of combination resulting in fluconazole MIC of: 4 ug/mL / FICI of combination resulting in fluconazole MIC of: 8 ug/mL: FICI calculated using a fluconazole MIC of 16 μg/mL; for FICI of combination resulting in fluconazole MIC of: 2 ug/mL (value in parenthesis) / FICI of combination resulting in fluconazole MIC of: 4 ug/mL (value in parenthesis) / FICI of combination resulting in fluconazole MIC of: 8 ug/mL (value in parenthesis): FICI using a fluconazole MIC of 128 μg/mL; for MIC: Nakaseomyces glabratus; for Multiple of compound MIC to synergize fluconazole MIC to 2 ug/mL / Multiple of compound MIC to synergize fluconazole MIC to 4 ug/mL / Multiple of compound MIC to synergize fluconazole MIC to 8 ug/mL: concentration in combination as multiple of the compound's MIC alone; for Multiple of compound MIC to synergize fluconazole MIC to 2 ug/mL: fluconazole MIC 2 ug/mL; for Multiple of compound MIC to synergize fluconazole MIC to 4 ug/mL: fluconazole MIC 4 ug/mL; for Multiple of compound MIC to synergize fluconazole MIC to 8 ug/mL: fluconazole MIC 8 ug/mL; for Concentration of Methylgene compound to synergize fluconazole MIC to 2 ug/mL / Concentration of Methylgene compound to synergize fluconazole MIC to 4 ug/mL / Concentration of Methylgene compound to synergize fluconazole MIC to 8 ug/mL: in combination with fluconazole; for Concentration of Methylgene compound to synergize fluconazole MIC to 2 ug/mL: fluconazole MIC lowered to 2 ug/mL; for Concentration of Methylgene compound to synergize fluconazole MIC to 4 ug/mL: fluconazole MIC lowered to 4 ug/mL; for Concentration of Methylgene compound to synergize fluconazole MIC to 8 ug/mL: fluconazole MIC lowered to 8 ug/mL
How it was run: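 A fluconazole synergy checkerboard was run against C. glabrata in MOPS-buffered RPMI (pH 7.0) for about 48 h at 35 °C. Each agent was diluted 2-fold, with one row and one column holding each agent alone for MIC determination. FICI was calculated from these MICs, using a 0.5 McFarland inoculum diluted 1:100 per CLSI.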

[1] = 24 hr reading (first value of cell 24 hr/48 hr)
[2] = 48 hr reading (second value of cell 24 hr/48 hr)
[3] = MIC of the example compound alone against C. glabrata in the checkerboard assay, approximately 48 hr, read-out: Methylgene MIC
[4] = test compound alone, C. glabrata, approx. 48 hr at 35° C., read-out: Compound MIC
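Wherever Minimum Inhibitory Concentrations against Yeast Isolates, Candida albicans is given: two read times 24 hr and 48 hr of incubation.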
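Wherever Minimum Inhibitory Concentrations against Yeast Isolates, Candida parapsilosis is given: two read times 24 hr and 48 hr of incubation.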

## CC(=O)Nc1ccc(CCCCc2ccc(CC(=O)NO)cc2)cc1 [Example 39, 2-(4-(4-(4-acetamidophenyl)butyl)phenyl)-N-hydroxyacetamide]
Candida glabrata; [1]
  MIC: > 8 µg/mL
Candida glabrata; [2]
  MIC: > 8 µg/mL
Candida parapsilosis; [1]
  MIC: > 8 µg/mL
Candida parapsilosis; [2]
  MIC: > 8 µg/mL
Candida albicans; [1]
  MIC: > 8 µg/mL
Candida albicans; [2]
  MIC: > 8 µg/mL
C. glabrata; C. glabrata
  FICI of combination resulting in fluconazole MIC of: 2 ug/mL: 0.375
  FICI of combination resulting in fluconazole MIC of: 4 ug/mL: 0.375
  FICI of combination resulting in fluconazole MIC of: 8 ug/mL: 0.563
  FICI of combination resulting in fluconazole MIC of: 2 ug/mL (value in parenthesis): 0.266
  FICI of combination resulting in fluconazole MIC of: 4 ug/mL (value in parenthesis): 0.156
  FICI of combination resulting in fluconazole MIC of: 8 ug/mL (value in parenthesis): 0.125
  Concentration of Methylgene compound to synergize fluconazole MIC to 2 ug/mL: 4 µg/mL
  Concentration of Methylgene compound to synergize fluconazole MIC to 4 ug/mL: 2 µg/mL
  Concentration of Methylgene compound to synergize fluconazole MIC to 8 ug/mL: 1 µg/mL
C. glabrata; [3]
  MIC: 16 µg/mL
C. glabrata; [4]
  MIC: 16 µg/mL
C. glabrata
  Multiple of compound MIC to synergize fluconazole MIC to 2 ug/mL: (¼x)
  Multiple of compound MIC to synergize fluconazole MIC to 4 ug/mL: (⅛x)
  Multiple of compound MIC to synergize fluconazole MIC to 8 ug/mL: ( 1/16x)

## COCCOCCOCC(=O)Nc1cccc(CCCCc2ccc(CC(=O)NO)cc2)c1 [Example 40, N-hydroxy-2-(4-(4-(3-(2-(2-(2-methoxyethoxy)ethoxy)acetamido)phenyl)butyl)phenyl)acetamide]
Candida glabrata; [1]
  MIC: 2 µg/mL (≈ 4.36 µM)
Candida glabrata; [2]
  MIC: 32 µg/mL (≈ 69.8 µM)
Candida parapsilosis; [1]
  MIC: > 64 µg/mL
Candida parapsilosis; [2]
  MIC: > 64 µg/mL
Candida albicans; [1]
  MIC: > 64 µg/mL
Candida albicans; [2]
  MIC: > 64 µg/mL
C. glabrata; C. glabrata
  FICI of combination resulting in fluconazole MIC of: 2 ug/mL: 0.313
  FICI of combination resulting in fluconazole MIC of: 4 ug/mL: 0.250
  FICI of combination resulting in fluconazole MIC of: 8 ug/mL: 0.375
  FICI of combination resulting in fluconazole MIC of: 2 ug/mL (value in parenthesis): 0.266
  FICI of combination resulting in fluconazole MIC of: 4 ug/mL (value in parenthesis): 0.156
  FICI of combination resulting in fluconazole MIC of: 8 ug/mL (value in parenthesis): 0.188
  Concentration of Methylgene compound to synergize fluconazole MIC to 2 ug/mL: 4 µg/mL
  Concentration of Methylgene compound to synergize fluconazole MIC to 4 ug/mL: 2 µg/mL
  Concentration of Methylgene compound to synergize fluconazole MIC to 8 ug/mL: 2 µg/mL
C. glabrata; [3]
  MIC: 16 µg/mL
C. glabrata; [4]
  MIC: 16 µg/mL
C. glabrata
  Multiple of compound MIC to synergize fluconazole MIC to 2 ug/mL: (¼x)
  Multiple of compound MIC to synergize fluconazole MIC to 4 ug/mL: (⅛x)
  Multiple of compound MIC to synergize fluconazole MIC to 8 ug/mL: (⅛x)

## O=C(Cc1ccc(CCCCc2cccc(NC(=O)CO)c2)cc1)NO [Example 41, N-hydroxy-2-(4-(4-(3-(2-hydroxyacetamido)phe-nyl)butyl)phenyl)acetamide]
Candida glabrata; [1]
  MIC: 4 µg/mL (≈ 11.2 µM)
Candida glabrata; [2]
  MIC: 16 µg/mL (≈ 44.9 µM)
Candida parapsilosis; [1]
  MIC: > 32 µg/mL
Candida parapsilosis; [2]
  MIC: > 32 µg/mL
Candida albicans; [1]
  MIC: > 32 µg/mL
Candida albicans; [2]
  MIC: > 32 µg/mL
C. glabrata; C. glabrata
  FICI of combination resulting in fluconazole MIC of: 2 ug/mL: 0.563
  FICI of combination resulting in fluconazole MIC of: 4 ug/mL: 0.375
  FICI of combination resulting in fluconazole MIC of: 8 ug/mL: 0.500
  FICI of combination resulting in fluconazole MIC of: 2 ug/mL (value in parenthesis): 0.516
  FICI of combination resulting in fluconazole MIC of: 4 ug/mL (value in parenthesis): 0.281
  FICI of combination resulting in fluconazole MIC of: 8 ug/mL (value in parenthesis): 0.313
  Concentration of Methylgene compound to synergize fluconazole MIC to 2 ug/mL: 8 µg/mL
  Concentration of Methylgene compound to synergize fluconazole MIC to 4 ug/mL: 4 µg/mL
  Concentration of Methylgene compound to synergize fluconazole MIC to 8 ug/mL: 4 µg/mL
C. glabrata; [3]
  MIC: 16 µg/mL
C. glabrata; [4]
  MIC: 16 µg/mL
C. glabrata
  Multiple of compound MIC to synergize fluconazole MIC to 2 ug/mL: (½x)
  Multiple of compound MIC to synergize fluconazole MIC to 4 ug/mL: (¼x)
  Multiple of compound MIC to synergize fluconazole MIC to 8 ug/mL: (¼x)

## CC(=O)Nc1cccc(CCCCc2ccc(CC(=O)NO)cc2)c1 [Example 42, 2-(4-(4-(3-acetamidophenyl)butyl)phenyl)-N-hydroxyacetamide]
Candida glabrata; [1]
  MIC: 8 µg/mL (≈ 23.5 µM)
Candida glabrata; [2]
  MIC: 16 µg/mL (≈ 47 µM)
Candida parapsilosis; [1]
  MIC: > 32 µg/mL
Candida parapsilosis; [2]
  MIC: > 32 µg/mL
Candida albicans; [1]
  MIC: > 32 µg/mL
Candida albicans; [2]
  MIC: > 32 µg/mL
C. glabrata; C. glabrata
  FICI of combination resulting in fluconazole MIC of: 2 ug/mL: 0.313
  FICI of combination resulting in fluconazole MIC of: 4 ug/mL: 0.375
  FICI of combination resulting in fluconazole MIC of: 8 ug/mL: 0.375
  FICI of combination resulting in fluconazole MIC of: 2 ug/mL (value in parenthesis): 0.266
  FICI of combination resulting in fluconazole MIC of: 4 ug/mL (value in parenthesis): 0.281
  FICI of combination resulting in fluconazole MIC of: 8 ug/mL (value in parenthesis): 0.188
  Concentration of Methylgene compound to synergize fluconazole MIC to 2 ug/mL: 4 µg/mL
  Concentration of Methylgene compound to synergize fluconazole MIC to 4 ug/mL: 4 µg/mL
  Concentration of Methylgene compound to synergize fluconazole MIC to 8 ug/mL: 2 µg/mL
C. glabrata; [3]
  MIC: 16 µg/mL
C. glabrata; [4]
  MIC: 16 µg/mL
C. glabrata
  Multiple of compound MIC to synergize fluconazole MIC to 2 ug/mL: (¼x)
  Multiple of compound MIC to synergize fluconazole MIC to 4 ug/mL: (¼x)
  Multiple of compound MIC to synergize fluconazole MIC to 8 ug/mL: (⅛x)
